How the values were obtained:
Type in all cases: physicochemical
[1] = Example 2: solubility of sertaconazole nitrate in solubilizers, macroscopic
Method: Mixtures of 2 wt.-% sertaconazole nitrate and 98 wt.-% of solubilizers were prepared and shaken for 24 h at 150 rpm and at room temperature. Subsequently, the samples were macroscopically examined by evaluating the amount and appearance of the sediment.

[2] = Example 1: solubility of sertaconazole nitrate in solvents, macroscopic
Method: Mixtures of 2 wt.-% sertaconazole nitrate and 98 wt.-% of solvents were prepared and shaken for 24 h at 150 rpm and at room temperature. Subsequently, the samples were macroscopically examined by evaluating the amount and appearance of the sediment.

[3] = Example 3: solubility of sertaconazole nitrate in mixtures of solvent and solubilizer
Method: Mixtures of 2 wt.-% sertaconazole nitrate and 98 wt.-% of a mixture of solvent and solubilizers (the amount of solubilizer with respect to the total mixture of sertaconazole nitrate, solvent and solubilizer is indicated in the subsequent table) were prepared and shaken for 24 h at 150 rpm and at room temperature. Subsequently, the samples were macroscopically examined by evaluating the amount and appearance of the sediment.

appearance ([1]; Dimethylphthalate): Milky mixture with sediment | appearance ([1]; Glycerine (cell below, Marcogol 300, empty, possibly merged)): Clear solution with sediment | appearance ([1]; Polyglycol M350 (cells below, propylene glycol, transcutol, macrogol 400, empty, possibly merged)): Dissolved | solubility ([2]; 2 wt.-% in 98 wt.-% solvent, 24 h, room temperature, trend over water, butyl acetate, ethyl acetate, isopropanol, ethanol): Increasing from water to ethanol | appearance ([2]; Ethanol): Low, crystalline sediment | appearance ([2]; Water): Not dissolved, powdery, white sediment | sediment ([2]; trend over water, butyl acetate, ethyl acetate, isopropanol, ethanol): Decreasing from water to etanol | amount and appearance of the sediment ([3]; Ethanol + Macrogol 400 10 wt.-%): Minimal crystal-line sediment | amount and appearance of the sediment ([3]; Ethanol + Macrogol 400 20 wt.-%): clear | amount and appearance of the sediment ([3]; Ethanol + Macrogol 400 30 wt.-%): clear | amount and appearance of the sediment ([3]; Ethanol + Polyglycol M350 10 wt.-%): Minimal crystal-line sediment | amount and appearance of the sediment ([3]; Ethanol + Polyglycol M350 20 wt.-%): clear | amount and appearance of the sediment ([3]; Ethanol + Polyglycol M350 30 wt.-%): clear | amount and appearance of the sediment ([3]; Ethyl acetate + Propylene glycol 30 wt.-%): Clear
Compound: Clc1ccc(C(Cn2ccnc2)OCc2csc3c(Cl)cccc23)c(Cl)c1 (centres unmarked) [sertaconazole nitrate]
solubility ([1]; 2 wt.-% in 98 wt.-% solubilizer, 24 h, room temperature, trend from dimethylphthalate to macrogol 400): Increasing from dimethylphthalate to macrogol 400 | amount and appearance of the sediment ([3]; Butyl acetate + Macrogol 400 10-30 wt.-%): Sediment, no change observed by increasing amount of macrogol 400 | amount and appearance of the sediment ([3]; Butyl acetate + Polyglycol M350 10-30 wt.-%): White powdery sediment, no change observed by increas-ing amount of polyglycol M350 | amount and appearance of the sediment ([3]; Butyl acetate + Propylene glycol 10-30 wt.-%): Clear decrease of sediment with increase of propylene gly-col | amount and appearance of the sediment ([3]; Butyl acetate + Transcutol 10-30 wt.-%): Sediment, no change observed by increasing amount of transcutol | amount and appearance of the sediment ([3]; Butyl acetate + Water 10-30 wt.-%): Sediment (partially powdery white), increase of sediment with increasing amount of water | amount and appearance of the sediment ([3]; Ethanol + Dimethylphthalate 10-30 wt.-%): Sediment (slightly crystalline), minimal decrease of sedi-ment with increasing of amount of dimethylphthalate | amount and appearance of the sediment ([3]; Ethanol + Propylene glycol 10-30 wt.-%): Minimal crystalline sediment, decrease of sediment with increase of amount of propylene glycol | amount and appearance of the sediment ([3]; Ethanol + Transcutol 10-30 wt.-%): Minimal crystalline sediment, decrease of sediment with increase of amount of transcutol | amount and appearance of the sediment ([3]; Ethanol + Water 10-30 wt.-%): Sediment (powdery/crystalline), no change observed by in-creasing amount of water | amount and appearance of the sediment ([3]; Ethyl acetate + Dimethylphthalate 10-30 wt.-%): Crystalline sediment, better solubility than pure ethyl ace-tate | amount and appearance of the sediment ([3]; Ethyl acetate + Macrogol 400 10-30 wt.-%): Crystalline sediment, minimal decrease of sediment with increase of amount of macrogol 400 | amount and appearance of the sediment ([3]; Ethyl acetate + Polyglycol M350 10-30 wt.-%): White, powdery sediment, no change observed by in-crease of amount of polyglycol M350 | amount and appearance of the sediment ([3]; Ethyl acetate + Propylene glycol 10-20 wt.-%): Decrease of crystalline sediment with increase of amount of propylene gly-col | amount and appearance of the sediment ([3]; Ethyl acetate + Transcutol 10-30 wt.-%): Powdery/crystalline sediment, no change observed by in-crease of amount of transcutol | amount and appearance of the sediment ([3]; Ethyl acetate + Water 10-30 wt.-%): Sediment (partially powdery white), increase of sediment with increasing amount of water | amount and appearance of the sediment ([3]; Isopropanol + Macrogol 400 10-30 wt.-%): Crystalline sediment, no change observed by increasing amount of macrogol 400 | amount and appearance of the sediment ([3]; Isopropanol + Polyglycol M350 10-30 wt.-%): White sediment, clear decrease of sediment with increas-ing amount of polyglycol M350 | amount and appearance of the sediment ([3]; Isopropanol + Propylene glycol 10-30 wt.-%): Crystalline sediment, no change observed by increasing amount of propylene glycol | amount and appearance of the sediment ([3]; Isopropanol + Transcutol 10-30 wt.-%): Crystalline sediment, no change observed by increasing amount of transcutol | amount and appearance of the sediment ([3]; Isopropanol + Water 10-30 wt.-%): White powdery sediment, no change observed by increas-ing amount of water
